The record followed here is PMC5532651, “Bistratamides M and N, Oxazole-Thiazole Containing Cyclic Hexapeptides Isolated from Lissoclinum bistratum Interaction of Zinc (II) with Bistratamide K” (Marine Drugs, 2017).

Data set [1] concerns PSN1 (human pancreatic carcinoma cells). In words: Cell proliferation / cytotoxicity, PSN1 pancreas. It is filed as cell-based. The note with it: for LC50: concentration producing 50% cell death vs control; for GI50: concentration producing 50% inhibition of cell growth vs control, NCI algorithm; for TGI: concentration producing total growth inhibition vs control. Here is the method:
(§1) The cytotoxic activity of compounds 1 and 2 was tested against NSLC A-549 human lung carcinoma cells, MDA-MB-231 human breast adenocarcinoma cells, HT-29 human colorectal carcinoma cells, and PSN1 (human pancreatic carcinoma cells). The concentration giving 50% inhibition of cell growth (GI50) was calculated according to the procedure described in the literature. Cell survival was estimated using the National Cancer Institute (NCI) algorithm. Three dose response parameters were calculated for 1 and 2.

In data set [2] the test system is HT-29 human colorectal carcinoma cells. In words: Cell proliferation / cytotoxicity, HT-29 colon. It is filed as cell-based. Particulars: for LC50: concentration producing 50% cell death vs control; for GI50: concentration producing 50% inhibition of cell growth vs control, NCI algorithm; for TGI: concentration producing total growth inhibition vs control. Here is the method:
as §1

For data set [3], the system named is NSLC A-549 human lung carcinoma cells. In words: Cell proliferation / cytotoxicity, NSLC A-549 lung. It is filed as cell-based. Particulars: for LC50: concentration producing 50% cell death vs control; for GI50: NCI algorithm; for TGI: concentration producing total growth inhibition vs control. Here is the method:
as §1

In data set [4] the test system is recombinant human topoisomerase I. In words: Enzymatic Topoisomerase 1 (Top1) assay. In kind it is biochemical. Particulars: up to highest concentration tested 100 μM (range 100 to 0.2 μM); 50 pM enzyme; 1 h preincubation, 1 h reaction, room temperature, pH 8.0; H19 dye fluorescence. Here is the method: The activity of human topoisomerase I was determined based on the increase in fluorescence of a commercial dye (“H19”, Profoldin, Westborough, MA, USA) when interacting with DNA and the higher number of interaction points present in supercoiled DNA with respect to relaxed DNA. Therefore, the activity of the enzyme causes a decrease of fluorescence intensity when the probe is added. The enzyme reaction is performed in a final volume of 20 μL in 384 black wells. Compounds 1 and 2, at twice their final concentrations, were mixed with 50 pM recombinant human topoisomerase I (Profoldin, Westborough, MA, USA) in 10 μL of 10 mM Tris-HCl pH 8.0 with 150 mM sodium chloride, 3 mM magnesium chloride and 5% (v/v) glycerol and incubated for 1 h at room temperature. Then, reaction was started by the addition of 10 μL of supercoiled DNA (Profoldin, Westborough, MA, USA) at 25 μg/mL in the same buffer and the mixture was incubated at room temperature for 1 h. […] After 1 h at room temperature the degree of conversion from supercoiled to relaxed DNA was determined by monitoring fluorescence intensity (excitation at 485 nm, emission at 535 nm) in a microtiter plate reader. […] IC50 values were calculated by fitting the results to a typical four parameters logistic curve by nonlinear regression analysis.

Data set [5] deals with human tumor cell lines A-549 (lung), HT-29 (colon), MDA-MB-231 (breast) and PSN1 (pancreas). In words: Cytotoxicity against four human tumor cell lines (summary in words). In kind it is cell-based. Particulars: GI50 values in the micromolar range. Here is the method:
as §1

Data set [6] has as its system MDA-MB-231 human breast adenocarcinoma cells. In words: Cell proliferation / cytotoxicity, MDA-MB-231 breast. In kind it is cell-based. The note with it: for LC50: concentration producing 50% cell death vs control; for GI50: concentration producing 50% inhibition of cell growth vs control, NCI algorithm; for TGI: concentration producing total growth inhibition vs control. Here is the method: as §1

The mark [7] stands for this setting: concentration producing 50% inhibition of cell growth vs control.

The structures appear in SMILES notation.

One may read the LC50 as the concentration lethal to half of the exposed cells or organisms. Low readings indicate a more lethal substance, high ones a less lethal substance. One may read the GI50 as the concentration giving 50% growth inhibition. By TGI is commonly meant the concentration giving total growth inhibition. For the compound `CC[C@H](C)[C@@H]1NC(=O)c2csc(n2)[C@H](C)NC(=O)c2coc(n2)[C@H](C)NC(=O)c2csc1n2` [Bistratamide M (1), Bistratamide M], the LC50 in data set [1], in data set [2], in data set [3] and in data set [6] was more than 20.0 µM throughout. Also, the GI50 came out at 9.8 µM in data set [1], 16 µM in data set [2], 9.1 µM in data set [3] (setting [7]) and 18 µM in data set [6]. Besides, the TGI in data set [1], in data set [2], in data set [3] and in data set [6] was more than 20.0 µM each time. For the same compound, the Top1 inhibition entry in data set [4] is listed as “failed to show any hint of inhibition even at the highest concentration tested”. In data set [5], the “cytotoxic activity (in words)” value is “moderate cytotoxic activity with GI50 values in the micromolar range”.
With `CC[C@H](C)[C@@H]1NC(=O)c2csc(n2)[C@@H](C)NC(=O)c2coc(n2)[C@H](C)NC(=O)c2csc1n2` [Bistratamide N (2), Bistratamide N], the LC50 in data set [1] is more than 20.0 µM; in data set [2], more than 20 µM; in data set [3], more than 20.0 µM; in data set [6], more than 20.0 µM. The GI50 in data set [1] was 15 µM; in data set [2] it was 13 µM; in data set [3] (setting [7]) it was 11 µM; in data set [6], more than 20 µM. Moreover, the TGI in data set [1] is more than 20.0 µM; in data set [2], more than 20 µM; in data set [3] it was more than 20.0 µM; in data set [6] it was more than 20.0 µM. Moreover, the Top1 inhibition entry in data set [4] is “failed to show any hint of inhibition even at the highest concentration tested”. Moreover, the “cytotoxic activity (in words)” value in data set [5] is given as “moderate cytotoxic activity with GI50 values in the micromolar range”.
With `COc1cccc2c1C(=O)c1c(O)c3c(c(O)c1C2=O)C[C@@](O)(C(=O)CO)C[C@@H]3O[C@H]1C[C@H](N)[C@H](O)[C@H](C)O1` [Doxorubicin, reference compound], the GI50 came to 0.2 µM in data set [1] (Homo sapiens); 0.3 µM in data set [2] (Homo sapiens); 0.2 µM in data set [3] (Homo sapiens, A549, concentration producing 50% inhibition of cell growth vs control); 0.2 µM in data set [6] (Homo sapiens). Besides, the LC50 in data set [1] is 3.1 µM; in data set [2], more than 17.2 µM; in data set [3] it was more than 17.2 µM; in data set [6] it was 2.4 µM. The TGI in data set [1] was found to be 0.5 µM; in data set [2], 0.9 µM; in data set [3], 0.9 µM; in data set [6] it was 0.5 µM.
